Laboratory results published in patent US11230526B1, “Cylcoalkenyl derivatives useful as agonists of the GPR120 and/or GPR40 receptors” (Janssen Pharmaceutica NV, priority 2018, dated 2022).

Assays:
Type in all cases: cell-based
Human GPR120 short form [1] = molecular target: T1, Human GPR120 short form (Homo sapiens, UniProt Q5NUL3); test: Human GPR120 calcium flux assay, Procedure Calcium A (2500 cells/well)
T1 construct: expressed in transfected cells
T1 sequence (Q5NUL3 1-361): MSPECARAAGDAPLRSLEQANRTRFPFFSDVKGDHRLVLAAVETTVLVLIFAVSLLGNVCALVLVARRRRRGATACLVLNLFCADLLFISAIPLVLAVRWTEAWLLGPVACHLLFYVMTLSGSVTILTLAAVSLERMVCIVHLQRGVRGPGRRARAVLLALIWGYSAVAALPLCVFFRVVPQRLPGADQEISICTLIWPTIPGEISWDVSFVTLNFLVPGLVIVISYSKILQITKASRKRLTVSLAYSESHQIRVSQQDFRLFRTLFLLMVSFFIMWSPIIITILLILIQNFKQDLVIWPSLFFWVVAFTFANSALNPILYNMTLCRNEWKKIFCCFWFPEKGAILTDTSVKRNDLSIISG
Method in brief: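 HEK293 cells stably expressing human GPR120 short isoform (NM_001195755.1), 2500 cells/well, serum-starved 1 h at 37 °C and loaded with Fluo-4 NW plus probenecid. FLIPR fluorescence read for 300 s after compound addition; response = Fmax−Fmin. EC50 from four-parameter concentration–response fit.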

Human GPR120 short form [2] = molecular target: T1, Human GPR120 short form; test: Human GPR120 calcium flux assay, Procedure Calcium B (4200 cells/well)
Method in brief: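 Agonist EC50 came from a four-parameter fit of RFU (Fmax−Fmin) read over 300 s on FLIPR. Cells were HEK293 stably transfected with human GPR120 (NM_001195755.1) at 4200 per well, serum-starved 1 h and loaded with Fluo-4 NW dye with probenecid before ligand addition.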

human GPR40 = molecular target: T2, human GPR40 (Homo sapiens, UniProt O14842); test: GPR40 calcium flux assay, human GPR40; details: HEK293 cells stably expressing GPR40; table does not say human or rat
T2 construct: expressed in transfected cells
T2 sequence (O14842 whole entry): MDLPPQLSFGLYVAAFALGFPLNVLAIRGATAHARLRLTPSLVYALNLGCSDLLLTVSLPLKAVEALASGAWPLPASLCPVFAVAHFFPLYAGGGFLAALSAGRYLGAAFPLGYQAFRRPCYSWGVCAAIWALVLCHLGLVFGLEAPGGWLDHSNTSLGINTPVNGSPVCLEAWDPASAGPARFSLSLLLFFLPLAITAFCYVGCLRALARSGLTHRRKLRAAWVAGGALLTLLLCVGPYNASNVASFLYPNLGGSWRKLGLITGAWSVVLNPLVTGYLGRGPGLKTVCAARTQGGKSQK
Method in brief: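 Cells preincubated 1 h at 37° C. in HBSS, 20 mM HEPES, 0.1% BSA, then Fluo 8 calcium dye 30 min at 37° C. and 15 min at room temperature.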

SMILES	EC50 (Human GPR120 short form [1])	EC50 (Human GPR120 short form [2])	EC50 (human GPR40)
Cc1c(CCC(=O)O)ccc(OCC2=C(c3ccccc3F)CCC2)c1C [Compound 124, 3-[4-[[2-(2-fluorophenyl)cyclopenten-1-yl]methoxy]-2,3-dimethyl-phenyl]Propanoic Acid]	0.308 µM	0.067 µM	> 5 µM
Cc1ccc(C2=C(COc3ccc(CCC(=O)O)c(C)c3C)CCC2)c(C)c1 [Compound 82]	0.372 µM	0.242 µM	> 5 µM
Cc1ccc(C2=C(COc3ccc(CCC(=O)O)c(F)c3F)CCC2)cc1F [Compound 78, 3-(2,3-difluoro-4-((2-(3-fluoro-4-methylphenyl)cyclopent-1-en-1-yl)methoxy)phenyl)Propanoic Acid]	0.094 µM	0.034 µM	> 5 µM
COc1cc(F)cc(C2=C(COc3ccc(CCC(=O)O)c(C)c3C)CCC2)c1 [Compound 65, 3-[4-[[2-(3-fluoro-5-methoxy-phenyl)cyclopenten-1-yl]methoxy]-2,3-dimethyl-phenyl]Propanoic Acid]	2.49 µM	0.614 µM	> 5 µM
CCc1ccc(C2=C(COc3c(F)cc(CCC(=O)O)cc3F)CCC2)cc1 [Compound 16, 3-(4-((2-(4-ethylphenyl)cyclopent-1-en-1-yl)methoxy)-3,5-difluorophenyl)Propanoic Acid]	0.198 µM	0.049 µM	> 5 µM
Cc1c(CCC(=O)O)ccc(OCC2=C(c3cccs3)CCC2)c1C [Compound 77, 3-[2,3-dimethyl-4-[[2-(2-thienyl)cyclopenten-1-yl]methoxy]phenyl]Propanoic Acid]	0.508 µM	0.122 µM	> 10 µM
Cc1cc(OCC2=C(c3ccc(Cl)cc3)CCC2)ccc1CCC(=O)O [Compound 131, 3-[4-[[2-(4-chlorophenyl)cyclopenten-1-yl]methoxy]-2-methyl-phenyl]Propanoic Acid]	0.533 µM	0.118 µM	1.99 µM
O=C(O)CCc1ccc(OCC2=C(c3ccc(Cl)cc3)CCC2)cc1F [Compound 47, 3-[4-[[2-(4-chlorophenyl)cyclopenten-1-yl]methoxy]-2-fluoro-phenyl]Propanoic Acid]	0.582 µM	0.103 µM	0.932 µM
Cc1ccc(C2=C(COc3ccc(CCC(=O)O)c(F)c3F)CCC2)cc1N [Compound 93, 3-(4-((2-(3-amino-4-methylphenyl)cyclopent-1-en-1-yl)methoxy)-2,3-difluorophenyl)Propanoic Acid]	0.427 µM	0.643 µM	> 5 µM
Cc1ccc(C2=C(COc3ccc(CCC(=O)O)c(C)c3C)CCC2)cc1C [Compound 106, 3-(4-((2-(3,4-dimethylphenyl)cyclopent-1-en-1-yl)methoxy)-2,3-dimethylphenyl)Propanoic Acid]	0.572 µM	0.567 µM	> 5 µM
Cc1ccc(C2=C(COc3ccc(CCC(=O)O)cc3C)CCC2)cn1 [Compound 102, 3-(3-methyl-4-((2-(6-methylpyridin-3-yl)cyclopent-1-en-1-yl)methoxy)phenyl)Propanoic Acid]	0.781 µM	0.134 µM	> 5 µM
Cc1c(CCC(=O)O)ccc(OCC2=C(c3ncccn3)CCC2)c1C [Compound 105, 3-[2,3-dimethyl-4-[(2-pyrimidin-2-ylcyclopenten-1-yl)methoxy]phenyl]Propanoic Acid]	1.63 µM	0.183 µM	> 5 µM
Cc1ccc(C2=C(COc3ccc(CCC(=O)O)c(C)c3C)CCC2)cc1F [Compound 80, 3-(4-((2-(3-fluoro-4-methylphenyl)cyclopent-1-en-1-yl)methoxy)-2,3-dimethylphenyl)Propanoic Acid]	0.081 µM	0.019 µM	> 5 µM
Cc1c(CCC(=O)O)ccc(OCC2=C(c3ccccc3Br)CCC2)c1C [Compound 111, 3-[4-[[2-(2-bromophenyl)cyclopenten-1-yl]methoxy]-2,3-dimethyl-phenyl]Propanoic Acid]	0.777 µM	0.687 µM	> 5 µM
Cc1ccc(C2=C(COc3c(F)cc(CCC(=O)O)cc3F)CCC2)cc1[N+](=O)[O-] [Compound 109, 3-(3,5-difluoro-4-((2-(4-methyl-3-nitrophenyl)cyclopent-1-en-1-yl)methoxy)phenyl)Propanoic Acid]	0.959 µM	1.29 µM	> 5 µM
Cc1ccc(C2=C(COc3ccc(CCC(=O)O)c(F)c3F)CCC2)cc1C [Compound 83, 3-(4-((2-(3,4-dimethylphenyl)cyclopent-1-en-1-yl)methoxy)-2,3-difluorophenyl)Propanoic Acid]	0.59 µM	0.143 µM	> 5 µM
Cc1ccc(C2=C(COc3c(F)cc(CCC(=O)O)cc3F)CCC2)cc1 [Compound 95, 3-(3,5-difluoro-4-((2-(p-tolyl)cyclopent-1-en-1-yl)methoxy)phenyl)Propanoic Acid]	0.378 µM	0.032 µM	> 5 µM
Cc1c(CCC(=O)O)ccc(OCC2=C(c3ccc(OC(F)(F)F)cc3)CCC2)c1C [Compound 20, 3-(2,3-dimethyl-4-((2-(4-(trifluoromethoxy)phenyl)cyclopent-1-en-1-yl)methoxy)phenyl)Propanoic Acid]	> 20 µM	–	> 5 µM
CCc1ccc(C2=C(COc3ccc(CCC(=O)O)c(F)c3F)CCC2)cc1 [Compound 25, 3-(4-((2-(4-ethylphenyl)cyclopent-1-en-1-yl)methoxy)-2,3-difluorophenyl)Propanoic Acid]	0.129 µM	–	> 5 µM

Now from value to molecule:

EC50 (Human GPR120 short form [1])	EC50 (Human GPR120 short form [2])	EC50 (human GPR40)	SMILES
0.682 µM	0.344 µM	> 5 µM	Cc1c(CCC(=O)O)ccc(OCC2=C(c3ccc(Cl)cc3Cl)CCC2)c1C [Compound 133, 3-[4-[[2-(2,4-dichlorophenyl)cyclopenten-1-yl]methoxy]-2,3-dimethyl-phenyl]Propanoic Acid]
0.297 µM	0.081 µM	> 5 µM	Cc1ccc(C2=C(COc3ccc(CCC(=O)O)c(C)c3C)CCCC2)cc1F [Compound 496, 3-[4-[[2-(3-fluoro-4-methyl-phenyl)cyclohexen-1-yl]methoxy]-2,3-dimethyl-phenyl]Propanoic Acid]
0.199 µM	0.04 µM	> 5 µM	Cc1cc(CCC(=O)O)ccc1OCC1=C(c2ccc(Cl)cc2)CCC(F)(F)C1 [Compound 467, 3-(4-((4′-chloro-4,4-difluoro-3,4,5,6-tetrahydro-[1,1′-biphenyl]-2-yl)methoxy)-3-methylphenyl)Propanoic Acid]
0.234 µM	0.133 µM	> 5 µM	Cc1c(CCC(=O)O)ccc(OCC2=C(c3ccc(Cl)nc3)CCC2)c1C [Compound 158, 3-(4-((2-(6-chloropyridin-3-yl)cyclopent-1-en-1-yl)methoxy)-2,3-dimethylphenyl)Propanoic Acid]
0.34 µM	0.053 µM	> 5 µM	O=C(O)CCc1ccc(OCC2=C(c3ccc(Cl)cc3)CCCC2)c2c1CCC2 [Compound 514, 3-[7-[[2-(4-chlorophenyl)cyclohexen-1-yl]methoxy]indan-4-yl]Propanoic Acid]
2 µM	1.43 µM	> 5 µM	Cc1ccc(C2=C(COc3ccc(CCC(=O)O)c(C)c3C)CCC2)cc1N [Compound 134, 3-(4-((2-(3-amino-4-methylphenyl)cyclopent-1-en-1-yl)methoxy)-2,3-dimethylphenyl)Propanoic Acid]
1.06 µM	0.256 µM	> 5 µM	COc1cccc(C2=C(COc3ccc(CCC(=O)O)c(C)c3C)CCC2)c1 [Compound 141, 3-[4-[[2-(3-methoxyphenyl)cyclopenten-1-yl]methoxy]-2,3-dimethyl-phenyl]Propanoic Acid]
0.117 µM	0.037 µM	> 5 µM	Cc1ccc(C2=C(COc3ccc(CCC(=O)O)c(F)c3F)CCCC2)cc1F [Compound 494, 3-[2,3-difluoro-4-[[2-(3-fluoro-4-methyl-phenyl)cyclohexen-1-yl]methoxy]phenyl]Propanoic Acid]
0.319 µM	0.023 µM	2.95 µM	O=C(O)CCc1ccc(OCC2=C(c3ccc(Cl)cc3)CCC2)cc1 [Compound 153, 3-[4-[[2-(4-chlorophenyl)cyclopenten-1-yl]methoxy]phenyl]Propanoic Acid]
0.808 µM	0.14 µM	> 5 µM	Cc1c(CCC(=O)O)ccc(OCC2=C(c3ccc(N(C)C)cc3)CCCC2)c1C [Compound 512, 3-[4-[[2-(4-dimethylaminophenyl)cyclohexen-1-yl]methoxy]-2,3-dimethyl-phenyl]Propanoic Acid]
–	0.065 µM	> 5 µM	Cc1c(CCC(=O)O)ccc(OCC2=C(c3ccc(Cl)cc3)CC(F)(F)C2)c1C [Compound 137, 3-[4-[[2-(4-chlorophenyl)-4,4-difluoro-cyclopenten-1-yl]methoxy]-2,3-dimethyl-phenyl]Propanoic Acid]
